Target: human F508del-CFTR (Homo sapiens, UniProt P13569, DEL508-508)
Test: F508del-CFTR cell surface expression (corrector activity), DiscoveRx ß-galactosidase complementation chemiluminescence assay in recombinant U2OS cell line;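 further: U2OS cells co-expressing ProLink-tagged F508del-CFTR and a membrane-anchored enzyme acceptor, where more surface CFTR restores β-galactosidase activity measured by chemiluminescence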
Settings: U2OS cell line, 16h compound incubation; for EC50: EC50, F508del-CFTR cell surface expression, geomean values; for Emax: U2OS, in relation to the Emax of the corrector lumacaftor (=100%), arithmetic mean values

human F508del-CFTR, sequence (P13569 with tags, fused parts or gaps DEL508-508): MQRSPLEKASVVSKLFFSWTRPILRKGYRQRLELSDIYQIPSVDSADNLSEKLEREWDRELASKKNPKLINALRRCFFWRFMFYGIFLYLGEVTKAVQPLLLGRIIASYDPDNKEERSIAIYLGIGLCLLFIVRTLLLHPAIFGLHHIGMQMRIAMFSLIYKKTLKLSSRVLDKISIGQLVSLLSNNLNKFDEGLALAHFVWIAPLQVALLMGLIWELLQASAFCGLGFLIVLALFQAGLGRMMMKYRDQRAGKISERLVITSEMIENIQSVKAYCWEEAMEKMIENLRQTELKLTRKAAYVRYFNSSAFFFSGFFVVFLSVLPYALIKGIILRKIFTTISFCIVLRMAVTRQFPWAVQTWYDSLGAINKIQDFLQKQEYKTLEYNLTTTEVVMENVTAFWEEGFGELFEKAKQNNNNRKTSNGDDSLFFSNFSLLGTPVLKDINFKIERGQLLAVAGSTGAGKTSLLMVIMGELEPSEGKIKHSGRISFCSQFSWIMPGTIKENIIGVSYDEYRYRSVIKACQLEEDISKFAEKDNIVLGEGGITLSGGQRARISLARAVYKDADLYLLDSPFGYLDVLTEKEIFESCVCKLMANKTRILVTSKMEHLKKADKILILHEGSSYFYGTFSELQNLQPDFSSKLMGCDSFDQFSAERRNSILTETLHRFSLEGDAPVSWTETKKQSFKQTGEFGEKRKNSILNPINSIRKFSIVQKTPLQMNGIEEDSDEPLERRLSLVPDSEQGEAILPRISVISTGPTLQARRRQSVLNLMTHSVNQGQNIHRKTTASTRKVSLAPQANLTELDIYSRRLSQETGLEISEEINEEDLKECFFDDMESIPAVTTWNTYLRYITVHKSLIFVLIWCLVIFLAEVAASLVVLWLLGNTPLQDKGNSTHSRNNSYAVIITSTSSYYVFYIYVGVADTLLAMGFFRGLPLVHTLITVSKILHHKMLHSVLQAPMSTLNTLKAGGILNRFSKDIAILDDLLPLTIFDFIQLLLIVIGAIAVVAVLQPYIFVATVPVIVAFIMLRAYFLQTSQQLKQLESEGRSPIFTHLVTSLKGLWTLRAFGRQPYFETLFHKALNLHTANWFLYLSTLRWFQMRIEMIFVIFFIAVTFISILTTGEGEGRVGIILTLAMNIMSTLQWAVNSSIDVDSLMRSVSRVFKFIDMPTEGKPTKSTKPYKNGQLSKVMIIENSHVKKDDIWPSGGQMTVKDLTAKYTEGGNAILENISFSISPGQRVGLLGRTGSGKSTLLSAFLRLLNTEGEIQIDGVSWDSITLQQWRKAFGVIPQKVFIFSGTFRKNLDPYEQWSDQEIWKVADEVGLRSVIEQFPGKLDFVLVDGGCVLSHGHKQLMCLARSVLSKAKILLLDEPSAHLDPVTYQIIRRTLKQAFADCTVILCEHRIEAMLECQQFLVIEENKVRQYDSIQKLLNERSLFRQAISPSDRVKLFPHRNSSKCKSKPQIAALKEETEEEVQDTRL

| SMILES | EC50 [nM] | Emax [%] |
| --- | --- | --- |
| COc1cccc2c1C(=O)N[C@H](C(=O)NCCc1cc(C)no1)CC(=O)N(C)[C@@H](CC(C)C)C(=O)N(CCC1CCCCC1)CC(=O)N[C@H](Cc1ccccc1)CO2 [Example 214, (3R,9S,13S)-3-benzyl-7-(2-cyclohexylethyl)-9-isobutyl-16-methoxy-10-methyl-N-(2-(3-methylisoxazol-5-yl)ethyl)-5,8,11,15-tetraoxo-2,3,4,5,6,7,8,9,10,11,12,13,14,15-tetradecahydrobenzo[p][1]oxa[4,7,10,14]tetraazacycloheptadecine-13-carboxamide] | 292 | 221 |
| CCc1ccc(CCNC(=O)[C@@H]2CC(=O)N(C)[C@@H](CC(C)C)C(=O)N(CCC3CCCCC3)CC(=O)N[C@H](Cc3ccccc3)COc3cccc(OC)c3C(=O)N2)cc1 [Example 215, (3R,9S,13S)-3-benzyl-7-(2-cyclohexylethyl)-N-(4-ethylphenethyl)-9-isobutyl-16-methoxy-10-methyl-5,8,11,15-tetraoxo-2,3,4,5,6,7,8,9,10,11,12,13,14,15-tetradecahydrobenzo[p][1]oxa[4,7,10,14]tetraazacycloheptadecine-13-carboxamide] | 214 | 172 |
| COCCCCCNC(=O)[C@@H]1CC(=O)N(C)[C@@H](CC(C)C)C(=O)N(CCC2CCCCC2)CC(=O)N[C@H](Cc2ccccc2)COc2cccc(OC)c2C(=O)N1 [Example 216, (3R,9S,13S)-3-benzyl-7-(2-cyclohexylethyl)-9-isobutyl-16-methoxy-N-(5-methoxypentyl)-10-methyl-5,8,11,15-tetraoxo-2,3,4,5,6,7,8,9,10,11,12,13,14,15-tetradecahydrobenzo[p][1]oxa[4,7,10,14]tetraazacycloheptadecine-13-carboxamide] | 420 | 102 |
| COc1cccc2c1C(=O)N[C@H](C(=O)NCCc1ccc(-n3cccn3)cc1)CC(=O)N(C)[C@@H](CC(C)C)C(=O)N(CCC1CCCCC1)CC(=O)N[C@H](Cc1ccccc1)CO2 [Example 217, (3R,9S,13S)-N-(4-(1H-pyrazol-1-yl)phenethyl)-3-benzyl-7-(2-cyclohexylethyl)-9-isobutyl-16-methoxy-10-methyl-5,8,11,15-tetraoxo-2,3,4,5,6,7,8,9,10,11,12,13,14,15-tetradecahydrobenzo[p][1]oxa[4,7,10,14]tetraazacycloheptadecine-13-carboxamide] | 202 | 135 |
| COc1cc(CCNC(=O)[C@@H]2CC(=O)N(C)[C@@H](CC(C)C)C(=O)N(CCC3CCCCC3)CC(=O)N[C@H](Cc3ccccc3)COc3cccc(OC)c3C(=O)N2)ccc1N [Example 218, (3R,9S,13S)-N-(4-amino-3-methoxyphenethyl)-3-benzyl-7-(2-cyclohexylethyl)-9-isobutyl-16-methoxy-10-methyl-5,8,11,15-tetraoxo-2,3,4,5,6,7,8,9,10,11,12,13,14,15-tetradecahydrobenzo[p][1]oxa[4,7,10,14]tetraazacycloheptadecine-13-carboxamide] | 353 | 143 |
| COc1cccc(CCNC(=O)[C@@H]2CC(=O)N(C)[C@@H](CC(C)C)C(=O)N(CCC3CCCCC3)CC(=O)N[C@H](Cc3ccccc3)COc3cccc(OC)c3C(=O)N2)n1 [Example 220, (3R,9S,13S)-3-benzyl-7-(2-cyclohexylethyl)-9-isobutyl-16-methoxy-N-(2-(6-methoxypyridin-2-yl)ethyl)-10-methyl-5,8,11,15-tetraoxo-2,3,4,5,6,7,8,9,10,11,12,13,14,15-tetradecahydrobenzo[p][1]oxa[4,7,10,14]tetraazacycloheptadecine-13-carboxamide] | 258 | 103 |
| CC(C)C[C@H]1C(=O)N2CCOC[C@@H]2C(=O)N[C@H](Cc2ccccc2)COc2cnc3ccccc3c2C(=O)N[C@H](C(=O)NCCc2cc(C(F)(F)F)no2)CC(=O)N1C [Example 221, (9S,13S,19aR,22R)-22-benzyl-13-isobutyl-12-methyl-7,11,14,20-tetraoxo-N-(2-(3-(trifluoromethyl)isoxazol-5-yl)ethyl)-7,8,9,10,11,12,13,14,16,17,19,19a,20,21,22,23-hexadecahydro-[1,4]oxazino[3′,4′:6,7][1]oxa[4,7,10,14]tetraazacycloheptadecino[17,16-c]quinoline-9-carboxamide] | 833 | 229 |
| COc1cccc(CCNC(=O)[C@@H]2CC(=O)N(C)[C@@H](CC(C)C)C(=O)N3CCOC[C@@H]3C(=O)N[C@H](Cc3ccccc3)COc3ccc4ccccc4c3C(=O)N2)c1 [Example 222, (4aR,7R,18S,22S)-7-Benzyl-22-isobutyl-N-(3-methoxyphenethyl)-21-methyl-5,16,20,23-tetraoxo-1,2,4,4a,5,6,7,8,16,17,18,19,20,21,22,23-hexadecahydronaphtho[1,2-p][1,4]oxazino[3,4-f][1]oxa[4,7,10,14]tetraazacycloheptadecine-18-carboxamide] | 216 | 249 |
| CC(C)C[C@H]1C(=O)N(C)CC(=O)N[C@H](Cc2ccccc2)COc2cc3c(cc2C(=O)N[C@H](C(=O)NCCc2ccc4c(c2)OCO4)CC(=O)N1C)OCO3 [Example 223, (7R,13S,17S)-N-(2-(benzo[d][1,3]dioxol-5-yl)ethyl)-7-benzyl-13-isobutyl-11,14-dimethyl-9,12,15,19-tetraoxo-6,7,8,9,10,11,12,13,14,15,16,17,18,19-tetradecahydro-[1,3]dioxolo[4′,5′:4,5]benzo[1,2-p][1]oxa[4,7,10,14]tetraazacycloheptadecine-17-carboxamide] | 388 | 141 |
| COc1cccc(CCNC(=O)[C@@H]2CC(=O)N(C)[C@@H](CC(C)C)C(=O)N(C)CC(=O)N[C@H](Cc3ccccc3)COc3cc4c(cc3C(=O)N2)OCO4)c1 [Example 224, (7R,13S,17S)-7-benzyl-13-isobutyl-N-(3-methoxyphenethyl)-11,14-dimethyl-9,12,15,19-tetraoxo-6,7,8,9,10,11,12,13,14,15,16,17,18,19-tetradecahydro-[1,3]dioxolo[4′,5′:4,5]benzo[1,2-p][1]oxa[4,7,10,14]tetraazacycloheptadecine-17-carboxamide] | 340 | 144 |
| CCOc1cccc(CCNC(=O)[C@@H]2CC(=O)N(C)[C@@H](CC(C)C)C(=O)N(C)CC(=O)N[C@H](Cc3ccccc3)COc3cc4c(cc3C(=O)N2)OCO4)c1 [Example 225, (7R,13S,17S)-7-benzyl-N-(3-ethoxyphenethyl)-13-isobutyl-11,14-dimethyl-9,12,15,19-tetraoxo-6,7,8,9,10,11,12,13,14,15,16,17,18,19-tetradecahydro-[1,3]dioxolo[4′,5′:4,5]benzo[1,2-p][1]oxa[4,7,10,14]tetraazacycloheptadecine-17-carboxamide] | 191 | 110 |
| CC(C)C[C@H]1C(=O)N(C)CC(=O)N[C@H](Cc2ccccc2)COc2cc3c(cc2C(=O)N[C@H](C(=O)NCCc2ccc4c(c2)OCCO4)CC(=O)N1C)OCO3 [Example 226, (7R,13S,17S)-7-benzyl-N-(2-(2,3-dihydrobenzo[b][1,4]dioxin-6-yl)ethyl)-13-isobutyl-11,14-dimethyl-9,12,15,19-tetraoxo-6,7,8,9,10,11,12,13,14,15,16,17,18,19-tetradecahydro-[1,3]dioxolo[4′,5′:4,5]benzo[1,2-p][1]oxa[4,7,10,14]tetraazacycloheptadecine-17-carboxamide] | 520 | 213 |
| CCc1ccc(CCNC(=O)[C@@H]2CC(=O)N(C)[C@@H](CC(C)C)C(=O)N(C)CC(=O)N[C@H](Cc3ccccc3)COc3cc4c(cc3C(=O)N2)OCO4)cc1 [Example 227, (7R,13S,17S)-7-benzyl-N-(4-ethylphenethyl)-13-isobutyl-11,14-dimethyl-9,12,15,19-tetraoxo-6,7,8,9,10,11,12,13,14,15,16,17,18,19-tetradecahydro-[1,3]dioxolo[4′,5′:4,5]benzo[1,2-p][1]oxa[4,7,10,14]tetraazacycloheptadecine-17-carboxamide] | 290 | 103 |
| COc1ccc2c(c1)C(=O)N[C@H](C(=O)NCCc1ccc3c(c1)OCO3)CC(=O)N(C)[C@@H](CC(C)C)C(=O)N(C)CC(=O)N[C@H](Cc1ccccc1)CO2 [Example 228, (3R,9S,13S)-N-(2-(benzo[d][1,3]dioxol-5-yl)ethyl)-3-benzyl-9-isobutyl-17-methoxy-7,10-dimethyl-5,8,11,15-tetraoxo-2,3,4,5,6,7,8,9,10,11,12,13,14,15-tetradecahydrobenzo[p][1]oxa[4,7,10,14]tetraazacycloheptadecine-13-carboxamide] | 460 | 190 |
| Cc1ccc2c(c1)C(=O)N[C@H](C(=O)NCCc1ccc3c(c1)OCO3)CC(=O)N(C)[C@@H](CC(C)C)C(=O)N(C)CC(=O)N[C@H](Cc1ccccc1)CO2 [Example 229, (3R,9S,13S)-N-(2-(benzo[d][1,3]dioxol-5-yl)ethyl)-3-benzyl-9-isobutyl-7,10,17-trimethyl-5,8,11,15-tetraoxo-2,3,4,5,6,7,8,9,10,11,12,13,14,15-tetradecahydrobenzo[p][1]oxa[4,7,10,14]tetraazacycloheptadecine-13-carboxamide] | 279 | 117 |
| COc1cccc(CCNC(=O)[C@@H]2CC(=O)N(C)[C@@H](CC(C)C)C(=O)N(C)CC(=O)N[C@H](Cc3ccccc3)COc3ccc(C)cc3C(=O)N2)c1 [Example 230, (3R,9S,13S)-3-benzyl-9-isobutyl-N-(3-methoxyphenethyl)-7,10,17-trimethyl-5,8,11,15-tetraoxo-2,3,4,5,6,7,8,9,10,11,12,13,14,15-tetradecahydrobenzo[p][1]oxa[4,7,10,14]tetraazacycloheptadecine-13-carboxamide] | 482 | 103 |

From patent US20240208992A1, “MACROCYCLES AS CFTR MODULATORS” (Idorsia Pharmaceuticals Ltd, priority 2021, published 2024)
